Experimental data published in patent US7601674B2, “α-oxygenated or α-thiolated carboxylic acid phenethylamide derivatives” (priority 2001, dated 2009).

Tests used:
Assay type in all cases: in vivo
[1] = tested on: Plasmopara viticola; test: D-1a Action against Plasmopara viticola on vines, residual-protective action; details: vine seedlings, test D-1a residual-protective, untreated plants attack 80-100%, read-out: inhibition of fungal infestation
Description: (§1) D-1: Action Against Plasmopara viticola on Vines
(§2) a) Residual-protective Action
Vine seedlings are sprayed at the 4- to 5-leaf stage with a spray mixture (0.02% active ingredient) prepared from a wettable powder formulation of the test compound. After 24 hours, the treated plants are infected with a sporangia suspension of the fungus. Fungus infestation is evaluated after incubation for 6 days at 95-100% relative humidity and +20° C.

[2] = tested on: Plasmopara viticola; test: D-1b Action against Plasmopara viticola on vines, residual-curative action; details: vine seedlings, test D-1b residual-curative, untreated plants attack 80-100%, read-out: inhibition of fungal infestation
Description: as §1
b) Residual-curative Action
Vine seedlings are infected at the 4- to 5-leaf stage with a sporangia suspension of the fungus. After incubation for 24 hours in a humidity chamber at 95-100% relative humidity and […], the infected plants are dried and sprayed with a spray mixture (0.02% active ingredient) prepared from a wettable powder formulation of the test compound. After the spray coating has dried, the treated plants are placed in the humidity chamber again. Fungus infestation is evaluated 6 days after infection.

[3] = tested on: Phytophthora; test: D-2a Action against Phytophthora on tomato plants, residual-protective action; details: test D-2a residual-protective, untreated plants attack 80-100%, read-out: inhibition of fungal infestation
Description: (§3) D-2: Action Against Phytophthora on Tomato Plants
as §2
(§4) After a cultivation period of 3 weeks, tomato plants are sprayed with a spray mixture (0.02% active ingredient) prepared from a wettable powder formulation of the test compound. After 48 hours, the treated plants are infected with a sporangia suspension of the fungus. Fungus infestation is evaluated after incubation of the infected plants for 5 days at 90-100% relative humidity and +20° C.

[4] = tested on: Phytophthora; test: D-2b Action against Phytophthora on tomato plants, systemic action; details: test D-2b systemic (soil drench), untreated plants attack 80-100%, read-out: inhibition of fungal infestation
Description: as §3
as §4, with “watered” for “sprayed”, “ingredient based on the volume of the soil)” for “ingredient)”, “compound. […]” for “compound.”, “96” for “48”, “4” for “5”

[5] = tested on: Phytophthora; test: D-3a Action against Phytophthora on potato plants, residual-protective action; details: potato plants (Bintje), test D-3a residual-protective, untreated plants attack 80-100%, read-out: inhibition of fungal infestation
Description: (§5) D-3: Action Against Phytophthora on Potato Plants
as §2
(§6) 2-3 week old potato plants (Bintje variety) are sprayed with a spray mixture (0.02% active ingredient) prepared from a wettable powder formulation of the test compound. After 48 hours, the treated plants are infected with a sporangia suspension of the fungus. Fungus infestation is evaluated after incubation of the infected plants for 4 days at 90-100% relative humidity and +20° C.

[6] = tested on: Phytophthora; test: D-3b Action against Phytophthora on potato plants, systemic action; details: potato plants (Bintje), test D-3b systemic (soil drench), untreated plants attack 80-100%, read-out: inhibition of fungal infestation
Description: as §5
as §6, with “watered” for “sprayed”, “ingredient based on the volume of the soil)” for “ingredient)”, “compound. […]” for “compound.”, “C. Fungal infestation is effectively controlled with compounds of Tables 1 to 64.” for “C.”

Measured: inhibition at 200 ppm

C#CCOc1ccc(CCNC(=O)C(O)COc2ccc(Cl)cc2)cc1OC (stereo not shown) [Compound E1.24, 3-(4-Chloro-phenoxy)-2-hydroxy-N-[2-(3-methoxy-4-prop-2-ynyloxy-phenyl)-ethyl]-propionamide]
80 to 100%: [1] | [2] | [3] | [4]

C#CCOc1ccc(CCNC(=O)C(COc2ccc(Cl)cc2)OCC#C)cc1OC (stereo not shown) [Compound E1.26]
80 to 100%: all assays above
